This test relates to mastitis in dairy cows. In words: Treatment of dairy cows with mastitis; cure judged by sodium hydroxide curdled milk test. The class given is in vivo. The conditions noted are these: dairy cows with mastitis (SMT detected); ointment 2 g externally twice a day for 5 days, or penicillin 100,000 IU breast perfusion; tested one day after stopping. The text has this:
Fifty dairy cows with mastitis detected by Shanghai Mastitis Test (SMT) are selected from a dairy farm in Hunan Province, of which 20 cows are externally coated with the traditional Chinese medicine ointment for preventing and treating mastitis in dairy cows prepared in embodiment 1 and 20 cows are externally applied with the traditional Chinese medicine ointment for preventing and treating mastitis in dairy cows prepared in comparative example 1, with the dosage of 2 g each time, twice a day for 5 days. The remaining 10 cows are perfused with penicillin 100,000 IU after all the milk is discharged from their breasts, as a control group.
Cure standard: one day after stopping the ointments, if curdled milk is negative by the sodium hydroxide test, the cows are judged to be cured.

The structures appear in SMILES notation.

For the compound `CC1(C)S[C@@H]2[C@H](NC(=O)Cc3ccccc3)C(=O)N2[C@H]1C(=O)O` [Control group, penicillin], the “Cows (head) with curdled milk being negative by sodium hydroxide test” value is 8 head and the “Cure rate (%)” value is 80%.

For the origin of these results see US20240100112A1, “TRADITIONAL CHINESE MEDICINE OINTMENT FOR PREVENTING AND TREATING MASTITIS IN DAIRY COWS, AND PREPARATION METHOD THEREOF” (Hunan University of Science and Engineering, priority 2022, published 2024).
